Data from patent publication US9687553B2, “Polymeric nanocarriers with linear dual response mechanism” (priority 2010, dated 2017).

Assays:
[1] = Gd chelate; cited from earlier work
[2] = tested on: HCT116 cells; assay: Transfection and EGFP expression, microscopy and flow cytometry; format: cell-based; conditions: 300 nM bafilomycin A1, nanocarrier delivery
Protocol: Expression and transfection efficiency of the HCT116 cells was tested by incubating them for 4 hr before washing excess nanocarriers and incubating cells in fresh media for 48 hr. […] PLGA-treated cells only had 2% of the cell population with signal intensity above background.
Immediate burst degradation and release of DNA from the dual pH-responsive nanocarriers only occurs in an environment of low pH. The endosome's low pH offers the appropriate stimulus to solubilize the polymer, resulting in an accelerated degradation via ketal hydrolysis. Bafilomycin A1, an inhibitor of V-ATPase, blocks the acidification of endosomes and has been previously used to characterize the mechanism of release of pH dependent polyplexes and nanocarriers. […] EGFP expression via nanocarrier delivery in HCT116 cells, measured by mean fluorescence, was affected by the presence of bafilomycin A1, causing 66% reduction in signal relative to non-treated cells (FIG. 37). […]
HCT116 cells were plated at a ˜50% density in a 24 well culture plate and allowed to attach overnight. […] The cells were then incubated for 48 hours and subsequently analyzed by fluorescence microscopy (Nikon) or flow-cytometry (Accuri C6) to detect green fluorescence. […] For flow cytometry, cells were first trysonized for […] followed by two washes with PBS and analyzed immediately. […]

[3] = Relaxivity versus time, bench top contrast agent analyzer; format: physicochemical
Description: To probe the relationship between degradation and relaxivity further, real-time T1 measurements were taken of the polymer solutions using a Bruker minispec mq60 bench top contrast agent analyzer. This machine is able to take rapid T1 measurements over a long duration, allowing for real-time data to be collected. Following data collection, a relationship between T1 and relaxivity can be made, and the relaxivity can be plotted versus time. The relaxivity measurements were then normalized for direct comparison between the two polymer CAs.
Samples were first incubated at 37° C. and various pH values and then measured continuously over time.
To investigate the change in relaxivity over time at different pH values further, continuous T1 measurements were taken using a bench top contrast agent analyzer. Using this machine, the T1 time of a 200 μl solution in an NMR tube is able to be measured. Furthermore, the measurement duration is short, allowing for a more real-time investigation of the T1 time. Finally, the software allows for sequential measurements to be performed, allowing for over 24 h of continuous T1 data to be taken.
Solutions of both polymer contrast agents were prepared at the desired pH values and pre-incubated for 5 min at 37° C. prior to T1 measurements. […]

Gd-DTPA-bisamide
stability constant (log K) [1]: 16.84

CO/C1=C\C(C)=C\[C@@H](C)[C@@H](O)[C@@H](C)C/C(C)=C/C=C/[C@H](OC)[C@@H]([C@@H](C)[C@@H](O)[C@H](C)[C@@]2(O)C[C@@H](O)[C@H](C)[C@@H](C(C)C)O2)OC1=O [bafilomycin A1]
reduction in EGFP signal (mean fluorescence) relative to non-treated cells [2]: 66%

O=C([O-])CN(CCN(CC(=O)[O-])CC(=O)O)CCN(CC(=O)[O-])CC(=O)O.[Gd+3] [Gd-DTPA]
relaxivity as measured [3]: 3.64 ± 0.12 mM⁻¹ s⁻¹ | stability constant (log K) [1]: 22.46
